Experimental findings from patent US20150245597A1, “HETEROZYGOUS MOUSE WITH AN INACTIVATED BRD1 ALLELE AND USES IN PSYCHIATRY” (CAPNOVA A/S, priority 2012, published 2015) are described below.

Holding throughout (format): in vivo, mouse
Experiment [1] deals with R mice. The experiment can be described thus: Pre-Pulse Inhibition (PPI) test during pharmacological challenge. On the procedure:
Gaiting and re-activity of the startle reflex was investigated by Acoustic Startle Response (ASR) and Pre-Pulse Inhibition (PPI) tests. In addition to baseline scores mice were also tested during pharmacological challenge; PCP (2.5 and 5 mg/kg s.c.) and amphetamine (2.5 and 5 mg/kg s.c.).

For experiment [2], the system named is R mice. The experiment can be described thus: Psychotropic drug-induced locomotor hyperactivity test. How it is done: Psychotropic drug-induced locomotor hyperactivity was established by injections with PCP (1.3, 2.5, and 5 mg/kg s.c.), amphetamine (1.3, 2.5, and 5 mg/kg s.c.) and cocaine (10, 20, and 30 mg/kg s.c.) as opposing saline vehicle s.c. and measured by recording both horizontal locomotor activity and rearing activity in an automated photo-cell equipped home-cage.

For experiment [3], the system named is R mice. Nature of the experiment: Forced swim test (FST) with anti-depressants. Conditions: for depressive equivalent behaviours during FST, difference between R and W mice: imipramine 1 mg/kg and 10 mg/kg, Fluoxetine 5 mg/kg, SC.
Method: (§2) Depressive equivalent behaviours were assessed by forced swim test (FST) and tail suspension test (TST). Depressive equivalent behaviours (FST and TST) were assessed with anti-depressants (e.g. imipramine at two doses: 1 mg/kg and 10 mg/kg and Fluoxetine: 5 mg/kg, and with normal saline vehicle subcutaneous (SC) injections.
In experiment [4] the test system is R mice. Nature of the experiment: Tail suspension test (TST) with anti-depressants. Conditions: for depressive equivalent behaviours during TST, difference between R and W mice: imipramine 1 mg/kg and 10 mg/kg, Fluoxetine 5 mg/kg, SC.
Method: as §2
Experiment [5] deals with R mice. Nature of the experiment: Y-maze continuous alternation test with PCP challenge. The following applies: R mice vs W, PCP 1.3 mg/kg s.c., p<0.05. On the procedure:
(§1) Spatial learning and spatial working memory was tested in the Morris Water Maze (MWM). Learning was scored based on latency to escape while memory was scored based on frequency and time spent in each zone of the maze. Exploratory and working memory components was addressed by various types of y-maze alternation tasks including spontaneous alternation test with dark phase testing, continuous alternation, and delayed alternation. Both baseline and induced behaviour (PCP 1.3 mg/kg s.c. and 2.5 mg/kg s.c.) was assessed. In all Y-maze tasks, alternation was calculated as the percentage of right choices out of the total arm entries.

The test system of experiment [6] is R mice. The experiment can be described thus: Y-maze spontaneous alternation test with PCP challenge. Conditions: R mice vs W, PCP 1.3 mg/kg s.c., p<0.01. How it is done:
as §1

Setting [7] is: Imipramine 10 mg/kg compared with Fluoxetine.

As for `CC(N)Cc1ccccc1` (stereo not shown) [Amphetamine, amphetamine], the “differences between R and W mice in PPI test when challenged” value in experiment [1] (amphetamine at any dose (2.5 and 5 mg/kg s.c.)) is recorded as “No differences”. Besides, the “drug-induced locomotor activity response (horizontal and rearing activity)” value in experiment [2] (R males compared to W mice, amphetamine 5 mg/kg s.c.) is “obvious hypoactivity”.

As to `CNCCC(Oc1ccc(C(F)(F)F)cc1)c1ccccc1` (stereo not shown) [Fluoxetine], the “depressive equivalent behaviours during FST, difference between R and W mice” value in experiment [3] is on record as “reversed”. Moreover, in experiment [4], the “depressive equivalent behaviours during TST, difference between R and W mice” value was “reversed”.

Take `CN(C)CCCN1c2ccccc2CCc2ccccc21` [Imipramine, imipramine]: the “effect size on depressive equivalent behaviours (FST)” value in experiment [3] (setting [7]) is “larger effect sizes than Fluoxetine”. Moreover, the “depressive equivalent behaviours during FST, difference between R and W mice” value in experiment [3] is reported as “reversed”. Also, the “effect size on depressive equivalent behaviours (TST)” value in experiment [4] (setting [7]) is “larger effect sizes than Fluoxetine”. The “depressive equivalent behaviours during TST, difference between R and W mice” value in experiment [4] was “reversed”.

As for `c1ccc(C2(N3CCCCC3)CCCCC2)cc1` [PCP], in experiment [1] (R males vs W mice, high prepulse intensities (15 db above background noise level), PCP 5 m/kg s.c.), the “inhibition of the startle in the PPI test” value is “reduced”. In addition, the “Prepulse inhibition, response of R mice as compared to W littermates” value in experiment [1] (Table 1, males only with PCP) was “Decreased”. The “drug-induced locomotor hyperactivity (horizontal and rearing activity)” value in experiment [2] (R males vs W mice, PCP 5 mg/kg s.c.) is recorded as “clear sensitivity”. Further, the “alternation in the continuous alternation test” value in experiment [5] is “significant reduction”. Further, the “alternation in the spontaneous alternation test” value in experiment [6] is “significant reduction”.
